Assay [1] concerns the target T1, FGF2 (Homo sapiens, UniProt P09038).
T1 construct: made in house; host or cells: Escherichia coli BL21 (DE3) Star
The assay is described as follows: Thermal shift assay (TSA) of FGFR1/FGF2 complex, FGF2 melting peak. Format: binding. From the text:
TSA was utilized to biophysically characterize the recombinant human FGFR1/FGF2 complex in the presence or absence of compounds. The assay functions by protein denaturation over a temperature gradient. During protein unfolding, exposed hydrophobic regions bind a dye and fluoresce due to solvent relaxation effects. Changes in the melting temperature of the protein complex in the presence of each compound were monitored and compounds were screened/ranked using this method.
One Shot BL21 (DE3) Star Escherichia coli competent cells (Thermo Fisher) were transformed with a relevant FGF2 plasmid and inoculated onto Ampicillin Luria Broth/Agar plates. Two hundred milliliter portions of Terrific Broth starter cultures were used to inoculate 9 L cultures with ampicillin at a concentration of 100 μg/mL. Cultures were grown to an O.D.600 near 1.0 at 37° C., and induced with IPTG overnight at 18° C. The cells were harvested at 7000 RPM in rotor 6000 for 5 min at 4° C. and stored at −80° C. Bacterial pellets were resuspended in 25 mM Hepes-NaOH, pH 7.5, 250 mM NaCl, and the cells were lysed in 3 cycles on/off for 3 minutes each at 4° C. via sonication. After centrifugation for 30 minutes at 16,000 RPM at 4° C., the isolated pellets were discarded, and the supernatant was filtered supernatant through a […] PES filter using 100 mL superloop. The lysate was purified over a 5 mL S column by washing the column with Lysis buffer for 5 CV then eluting using gradient from 250 mM to 1 M NaCl over 20 CV. The fractions containing FGF2 were identified via SDS-PAGE gel (Expected Mw: 15.2 KDa). The protein was collected and diluted in 20 mM Tris-HCl pH 8.0, 25 mM MgCl2 buffer in order to reach a NaCl concentration of 150 mM. The purified FGF2 was concentrated and stored at −80° C.
Thawed aliquots of purified FGF2 (1.0 mg/mL) and FGFR1 (1.6 mg/mL) proteins were mixed in a 1:1 molar ratio (64 μM: 64 μM) on ice for 30 min at 4° C. and plated prior to the thermal shift assay (TSA). Complex formation was verified by loading the complexed material on a size exclusion column (superdex 300GL S200) and observing the monodisperse peak corresponding to the FGF2/FGFR1 complex (˜40 kDa). Compounds of the invention were screened in dose response format (0-100 μM) with the FGF2/FGFR1 complex in triplicates. FGF2/FGFR1/compound complexes were mixed in a 1000:1 ratio with Sypro Orange dye (Sigma-Aldrich). The samples were processed using a Bio-Rad CFX C96 Touch quantitative polymerase chain reaction and run using the FRET assay settings with a heating ramp of 0.3° C./s cycling from 4 to 100° C. Data analysis was performed using the Bio-Rad CFX Manager Software (version 3.1, Bio-Rad) and changes in the melting temperature (Tm) of the complex in the presence of each compound were monitored. The results are shown in Tables 2 and 3 below and also in FIG. 1 (for Compound 2).

For assay [2], the target named is FGFR1 (Homo sapiens, UniProt P11362). Kind of assay: Phosphorylation of FGFR1 in cells expressing FGFR1 in the presence of submaximal FGF-2. Format: cell-based. The settings on record: increasing concentrations, submaximal concentration of FGF-2; FIG. 2. How it is done: Cells expressing FGFR1 were exposed to increasing concentrations of Compound 2 in the presence of a submaximal concentration of FGF-2. Cells were then lysed, and the relative phosphorylation of FGFR1 was assessed using antibodies to non-phosphorylated and phosphorylated FGFR1. The results are shown in FIG. 2, which is a graph showing the phosphorylation of FGFR1 in the presence of increasing concentrations of Compound 2.
Sequence of FGFR1 (P11362 22-822): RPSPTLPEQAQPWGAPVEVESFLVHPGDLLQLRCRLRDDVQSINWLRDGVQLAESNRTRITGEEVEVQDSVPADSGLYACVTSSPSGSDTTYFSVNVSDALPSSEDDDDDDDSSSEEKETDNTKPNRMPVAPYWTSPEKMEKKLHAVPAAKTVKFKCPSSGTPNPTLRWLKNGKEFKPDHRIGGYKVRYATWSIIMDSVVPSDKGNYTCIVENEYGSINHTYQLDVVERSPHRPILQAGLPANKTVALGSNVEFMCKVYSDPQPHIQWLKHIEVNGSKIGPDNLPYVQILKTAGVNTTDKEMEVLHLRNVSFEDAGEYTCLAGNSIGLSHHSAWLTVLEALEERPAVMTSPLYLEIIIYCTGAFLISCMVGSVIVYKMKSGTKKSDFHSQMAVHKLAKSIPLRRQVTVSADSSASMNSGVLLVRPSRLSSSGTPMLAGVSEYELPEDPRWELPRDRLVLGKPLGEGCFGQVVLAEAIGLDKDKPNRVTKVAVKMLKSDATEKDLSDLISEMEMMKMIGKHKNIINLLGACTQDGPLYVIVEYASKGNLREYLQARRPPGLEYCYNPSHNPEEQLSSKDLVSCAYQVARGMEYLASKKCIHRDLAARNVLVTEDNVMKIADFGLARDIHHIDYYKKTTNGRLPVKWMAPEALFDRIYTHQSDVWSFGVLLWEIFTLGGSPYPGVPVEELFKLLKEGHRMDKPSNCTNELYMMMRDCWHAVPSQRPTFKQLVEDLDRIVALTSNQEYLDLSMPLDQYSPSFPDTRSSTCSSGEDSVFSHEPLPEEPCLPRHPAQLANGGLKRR
Sequence of FGFR1 (P09038 143-288 partner): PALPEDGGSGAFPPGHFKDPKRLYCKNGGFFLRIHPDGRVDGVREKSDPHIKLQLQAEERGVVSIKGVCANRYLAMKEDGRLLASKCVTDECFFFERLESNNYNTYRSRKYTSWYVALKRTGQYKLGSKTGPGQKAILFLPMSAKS

In assay [3] the test system is rodent model of stroke recovery (MCAO). Kind of assay: Stroke recovery in vivo after middle cerebral artery occlusion (MCAO): limb placing and body swing tests. Particulars: rat MCAO; 10 mg/kg i.v. on Day 1, 2 and 3 after MCAO; vs vehicle, p<0.001; up to Day 21. As to the method: Compound 2 (2-(1-benzhydrylpiperidin-4-yl)-N,N-diethyl-1,2,3,4-tetrahydroisoquinolin-6-amine) was tested for its effectiveness in a rodent model of stroke recovery. Twenty male Sprague Dawley Rats (Charles River Laboratories) each weighing 300-400 g were used in this experiment. First, anesthesia was induced in an induction chamber with 2-3% isoflurane in N2O:O2 (2:1) and maintained with 1-1.5% isoflurane via face mask. Adequate depth of anesthesia was assessed by lack of withdrawal to hindlimb pinch and loss of eyeblink reflex. Once anesthetized, animals received cefazolin sodium (40 mg/kg, i.p.) and buprenorphine SR (0.9-1 mg/kg, s.c.). Cefazolin was used as a prophylactic antibiotic. A veterinary ophthalmic ointment (Sodium Chloride hypertonicity ophthalmic ointment (Muro 128 Sterile Ophthalmic 5% Ointment)) was applied to the eyes. […]
Behavioral evaluations of sensorimotor function were done by investigators blinded to treatment assignment. […] For the forelimb-placing test, the examiner held the rat close to a tabletop and scored the rat's ability to place the forelimb on the tabletop in response to whisker, visual, tactile, or proprioceptive stimulation. Similarly, for the hindlimb placing test, the examiner assessed the rat's ability to place the hindlimb on the tabletop in response to tactile and proprioceptive stimulation. […]

T1 sequence (P09038 156-288 limits assumed): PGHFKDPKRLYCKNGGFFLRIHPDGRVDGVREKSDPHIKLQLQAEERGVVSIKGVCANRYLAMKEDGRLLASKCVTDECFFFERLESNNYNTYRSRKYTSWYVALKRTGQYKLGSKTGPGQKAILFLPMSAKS
T1 sequence (P11362 142-365 partner limits assumed): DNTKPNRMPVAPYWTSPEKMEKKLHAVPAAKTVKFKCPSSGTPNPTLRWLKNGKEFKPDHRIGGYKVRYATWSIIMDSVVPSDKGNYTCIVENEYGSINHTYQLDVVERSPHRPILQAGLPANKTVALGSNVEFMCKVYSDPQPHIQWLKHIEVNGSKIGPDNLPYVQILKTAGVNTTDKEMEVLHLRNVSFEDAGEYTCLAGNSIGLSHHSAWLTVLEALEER

`CCN(CC)c1ccc2c(c1)CCN(C1CCN(C(c3ccccc3)c3ccccc3)CC1)C2` [Compound 2, 2-(1-benzhydrylpiperidin-4-yl)-N,N-diethyl-1,2,3,4-tetrahydroisoquinolin-6-amine]: the thermal shift (ΔTm) at 2 µM in assay [1] (2 μM compound) was -2.5 °C. Besides, in assay [1] (10 μM compound), the ΔTm at 10 µM was -3 °C. The “phosphorylation of FGFR1” value in assay [2] was “augmented the effects of FGF-2”. Also, the “sensorimotor recovery (forelimb placing, hindlimb placing and body swing tests)” value in assay [3] was “clear and significant augmentation of sensorimotor recovery”.

These data come from US20240174631A1, “COMPOUNDS, COMPOSITIONS, AND METHODS FOR MODULATING FGF ACTIVITY” (Recovery Therapeutics, Inc., priority 2021, published 2024).
